# In patent US6452005B1, “JAK-3 inhibitors for treating allergic disorders” (Parker Hughes Institute, priority 1999, dated 2002):
# How the values were obtained:
# BALB/c mice [1] = experiment: IgE/antigen-induced active systemic anaphylaxis model; format: in vivo; details: BSA-sensitized mice, two doses of 45 mg/kg before challenge; 8 of 15
# Protocol: FIG. 14E is a graph showing results of a study of the effect of JAK3 inhibitor WHI-P131 on fatal anaphylaxis in mice. BALB/c mice were sensitized with 100 mg/kg bovine serum albumin in 200 μl of the adjuvant aluminum hydroxide gel (Reheis Inc., Berkeley, N.J.), which favors the production of IgE in response to the presented antigen. Ten days later, mice were treated with two doses of WHI-P131 (45 mg/kg) or vehicle 30 minutes apart and then challenged with an i.v. injection of the 10 mg/kg BSA. Cumulative proportions of mice surviving anaphylaxis-free are shown according to the time after the antigen challenge.
# To induce passive systemic anaphylaxis, BALB/c mice were sensitized with […] DNP-IgE intravenously. At 24 hours DNP-BSA (2 mg) was administered intravenously with 0.5% Evans blue (200 μl). For assessment of vascular leak, animals were sacrificed 30 minutes after the antigen challenge and their foot pads were examined for blue coloration. Histamine levels in plasma were measured 5 minutes after the antigen challenge. […] For histopathologic evaluation of tissue mast cell degranulation, ears of mice were removed 1 hour after the DNP-BSA injection and fixed in 10 percent buffered formalin. […]
# IRK = biological target: T1, IRK (Homo sapiens, UniProt P06213); experiment: Immune complex kinase assay, IRK from HepG2 cells; format: biochemical; details: concentrations as high as 350 μM
# T1 construct: IRK was immunoprecipitated from the lysates with an anti-IRb antibody; endogenous in cells; host or cells: HepG2 human hepatoma cells, insulin-stimulated
# T1 sequence (P06213 763-1382 limits assumed): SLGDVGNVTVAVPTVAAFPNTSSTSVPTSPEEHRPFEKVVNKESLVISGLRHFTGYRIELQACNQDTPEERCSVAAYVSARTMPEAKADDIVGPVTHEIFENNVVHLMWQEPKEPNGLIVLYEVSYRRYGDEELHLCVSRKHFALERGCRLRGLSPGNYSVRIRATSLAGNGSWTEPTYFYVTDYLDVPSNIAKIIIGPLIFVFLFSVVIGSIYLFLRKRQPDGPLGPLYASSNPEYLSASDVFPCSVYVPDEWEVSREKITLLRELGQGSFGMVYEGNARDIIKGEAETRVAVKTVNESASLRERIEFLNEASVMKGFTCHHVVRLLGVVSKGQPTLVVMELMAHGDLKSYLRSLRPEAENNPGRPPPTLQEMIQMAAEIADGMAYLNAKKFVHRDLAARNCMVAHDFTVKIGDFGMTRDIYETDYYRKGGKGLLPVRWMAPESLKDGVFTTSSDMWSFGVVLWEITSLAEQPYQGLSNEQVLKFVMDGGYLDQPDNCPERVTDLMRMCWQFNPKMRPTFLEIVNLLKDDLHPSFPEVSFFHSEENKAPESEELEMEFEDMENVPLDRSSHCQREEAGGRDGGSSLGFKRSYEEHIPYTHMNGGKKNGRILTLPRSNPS
# T1 sequence (P06213 28-758 partner limits assumed): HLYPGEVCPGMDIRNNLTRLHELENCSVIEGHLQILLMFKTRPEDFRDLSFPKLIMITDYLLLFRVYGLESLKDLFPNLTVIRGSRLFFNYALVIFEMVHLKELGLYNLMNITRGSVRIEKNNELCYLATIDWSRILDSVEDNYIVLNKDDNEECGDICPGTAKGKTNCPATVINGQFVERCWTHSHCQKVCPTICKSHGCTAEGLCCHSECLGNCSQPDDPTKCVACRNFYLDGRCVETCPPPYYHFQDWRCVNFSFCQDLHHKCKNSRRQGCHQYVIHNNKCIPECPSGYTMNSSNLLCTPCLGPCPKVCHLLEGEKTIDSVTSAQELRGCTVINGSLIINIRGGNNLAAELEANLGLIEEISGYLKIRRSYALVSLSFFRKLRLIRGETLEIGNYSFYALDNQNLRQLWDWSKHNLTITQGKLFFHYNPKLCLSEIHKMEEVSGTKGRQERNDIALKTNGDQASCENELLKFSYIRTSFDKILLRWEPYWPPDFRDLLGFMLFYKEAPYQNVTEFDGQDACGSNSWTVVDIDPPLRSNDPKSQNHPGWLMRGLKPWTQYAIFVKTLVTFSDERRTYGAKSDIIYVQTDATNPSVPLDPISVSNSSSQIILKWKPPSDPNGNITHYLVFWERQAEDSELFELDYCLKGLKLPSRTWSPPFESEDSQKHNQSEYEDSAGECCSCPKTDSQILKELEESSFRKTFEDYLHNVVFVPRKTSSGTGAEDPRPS
# Protocol: For insulin receptor kinase (IRK) assays, HepG2 human hepatoma cells grown to approximately 80% confluency were washed once with serum-free DMEM and starved for 3 hours at 37° in a CO2 incubator. Subsequently, cells were stimulated with insulin (Eli Lilly, cat# CP-410;10 units/ml/10×10^6 cells) for 10 minutes at room temperature. Following this IRK activation step, cells were washed once with serum free medium, lysed in NP-40 buffer and IRK was immunoprecipitated from the lysates with an anti-IRb antibody (Santa Cruz, Cat.# sc-711, polyclonal IgG). Prior to performing the immune complex kinase assays, the beads were equilibrated with the kinase buffer (30 mM Hepes pH 7.4, 30 mM NaCl, 8 mM MgCl2, 4 mM MnCl2).
# [2] = test system: mouse bone marrow mast cells; details: data not shown
# BALB/c mice [3] = experiment: Passive cutaneous anaphylaxis model; format: in vivo; details: 25 mg/kg i.p. dose level
# Protocol: FIG. 14A is a graph showing the effects of WHI-P131 on anaphylaxis-associated vascular hyperpermeability, examined by evaluating the cutaneous extravasation of albumin-bound Evans blue dye in mice (n=12). The plasma exudation indices were determined for vehicle treated as well as WHI-P131 treated mice, as described in the Examples. To study the effect of WHI-P131 on anaphylaxis, IgE sensitized mice were injected with two consecutive doses of 10 or 25 mg/kg WHI-P131 at 90 minutes before and 30 minutes before the antigen challenge, respectively. Mice were then challenged with 100 μg DNP-BSA in 2% Evans blue dye and the plasma exudation indices were determined. […] The data are expressed as plasma exudation index (times increase in optical density over PBS treated ears. The mean OD (at 620 nm) of vehicle treated ears was 0.22±0.04 before and 0.918±0.05 after the IgE/antigen challenge. *p<0.05 compared to vehicle treated controls.
# After 20 hours, mice were treated with WHI-P131 (10 or 25 mg/kg i.p.) twice at 1 hour intervals prior to the antigen challenge. […] For quantitation of Evans blue dye extravasation as a measure of anaphylaxis-associated vascular hyperpermeability, 8 mm skin specimens were removed from the ears of mice, minced in 2 ml formamide and incubated at 80° C. for 2 hours in water bath to extract the dye. The absorbance was read at 620 nm. […]
# recombinant JAK2 = recombinant JAK2 (Homo sapiens, UniProt O60674); experiment: Immune complex kinase assay, recombinant JAK2; details: FIG. 6C & D
# Chain of recombinant JAK2 (O60674 whole entry): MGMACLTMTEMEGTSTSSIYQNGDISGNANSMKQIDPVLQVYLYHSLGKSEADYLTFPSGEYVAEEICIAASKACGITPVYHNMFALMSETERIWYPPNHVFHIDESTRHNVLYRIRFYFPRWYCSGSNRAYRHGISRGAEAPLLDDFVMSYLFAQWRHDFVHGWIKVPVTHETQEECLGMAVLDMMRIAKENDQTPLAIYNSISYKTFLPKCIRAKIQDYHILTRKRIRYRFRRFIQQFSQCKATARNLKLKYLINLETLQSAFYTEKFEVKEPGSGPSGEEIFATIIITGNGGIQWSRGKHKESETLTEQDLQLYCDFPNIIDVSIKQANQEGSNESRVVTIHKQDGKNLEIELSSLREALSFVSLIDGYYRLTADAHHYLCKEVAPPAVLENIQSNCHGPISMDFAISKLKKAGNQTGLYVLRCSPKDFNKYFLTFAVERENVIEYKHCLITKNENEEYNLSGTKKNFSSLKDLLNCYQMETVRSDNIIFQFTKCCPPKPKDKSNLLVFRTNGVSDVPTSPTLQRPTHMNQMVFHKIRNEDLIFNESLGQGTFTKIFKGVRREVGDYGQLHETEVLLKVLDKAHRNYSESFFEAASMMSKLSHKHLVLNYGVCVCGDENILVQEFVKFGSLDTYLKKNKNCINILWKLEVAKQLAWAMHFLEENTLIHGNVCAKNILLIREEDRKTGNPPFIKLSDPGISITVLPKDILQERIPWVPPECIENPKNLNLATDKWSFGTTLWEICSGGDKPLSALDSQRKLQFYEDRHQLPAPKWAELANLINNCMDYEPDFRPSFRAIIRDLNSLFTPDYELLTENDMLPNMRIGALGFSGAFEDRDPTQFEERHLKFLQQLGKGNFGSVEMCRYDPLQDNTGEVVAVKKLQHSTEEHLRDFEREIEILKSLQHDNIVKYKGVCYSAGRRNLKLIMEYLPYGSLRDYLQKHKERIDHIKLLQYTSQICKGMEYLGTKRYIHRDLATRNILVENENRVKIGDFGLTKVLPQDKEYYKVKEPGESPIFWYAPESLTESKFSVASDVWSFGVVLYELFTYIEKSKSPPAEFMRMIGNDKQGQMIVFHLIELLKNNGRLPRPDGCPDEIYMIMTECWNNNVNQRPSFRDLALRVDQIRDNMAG
# Protocol: In FIGS. 6A-6D, JAK3, JAK1, and JAK2 were immunoprecipitated from Sf21 insect ovary cells transfected with the appropriate baculovirus expression vectors and treated with WHI-P131, then subjected to in vitro kinase assays as described in the Examples below. The enzymatic activity of JAKs was determined by measuring autophosphorylation in a 10 minute kinase assay, as described in the Examples below. The kinase activity (KA) levels were expressed as percentage of baseline activity (%CON).
# Immune Complex Kinase Assays. Sf21 (IPLB-SF21-AE) cells (Vassilev et. al., 1999, J. Biol. Chem,. 274:1646-1656) derived from the ovarian tissue of the fall armyworm Spodotera frugiperda, were obtained from Invitrogen and maintained at 26-28° C. in Grace's insect cell medium supplemented with 10% FBS and 1.0% antibiotic/antimycotic (GIBCO-BRL). Stock cells were maintained in suspension at 0.2-1.6×10^6/ml in 600 ml total culture volume in 1 L Bellco spinner flasks at 60-90 rpm. Cell viability was maintained at 95-100% as determined by trypan blue dye exclusion.
# Sf21 cells were infected with a baculovirus expression vector for BTK, SYK, JAK1, JAK2, or JAK3, as previously reported (Mahajan et. al., 1999, J. Biol. Chem., 274:1646-1656). […]
smiles,measurement,setting,value
"COc1cc2ncnc(Nc3ccc(O)cc3)c2cc1OC [WHI-P131, 4-(4′-Hydroxylphenyl)-amino-6,7-dimethoxyquinazoline]",mice surviving without any signs of anaphylaxis,BALB/c mice [1],53%
same,effect on enzymatic activity of IRK,IRK,did not affect
same,IgE receptor/FcεRI-mediated release of LTC4,[2],markedly reduced
same,IgE receptor/FcεRI-mediated release of histamine,[2],markedly reduced
same,inhibition of IgE/antigen induced plasma exudation (Evans blue extravasation),BALB/c mice [3],70%
same,inhibitory activity against recombinant JAK2,recombinant JAK2,did not exhibit any detectable inhibitory activity
